These molecules were tested against T1, human CPT1A (Homo sapiens, UniProt P50416) (assay: Human CPT1A LC/MS assay). Settings: human CPT1A LC/MS assay, dose response format.
T1 construct: made in house; host or cells: Saccharomyces cerevisiae (pESC-trp) or cultured mammalian cells (pCDNA3.1); mitochondrial extract
T1 sequence (P50416 1-773): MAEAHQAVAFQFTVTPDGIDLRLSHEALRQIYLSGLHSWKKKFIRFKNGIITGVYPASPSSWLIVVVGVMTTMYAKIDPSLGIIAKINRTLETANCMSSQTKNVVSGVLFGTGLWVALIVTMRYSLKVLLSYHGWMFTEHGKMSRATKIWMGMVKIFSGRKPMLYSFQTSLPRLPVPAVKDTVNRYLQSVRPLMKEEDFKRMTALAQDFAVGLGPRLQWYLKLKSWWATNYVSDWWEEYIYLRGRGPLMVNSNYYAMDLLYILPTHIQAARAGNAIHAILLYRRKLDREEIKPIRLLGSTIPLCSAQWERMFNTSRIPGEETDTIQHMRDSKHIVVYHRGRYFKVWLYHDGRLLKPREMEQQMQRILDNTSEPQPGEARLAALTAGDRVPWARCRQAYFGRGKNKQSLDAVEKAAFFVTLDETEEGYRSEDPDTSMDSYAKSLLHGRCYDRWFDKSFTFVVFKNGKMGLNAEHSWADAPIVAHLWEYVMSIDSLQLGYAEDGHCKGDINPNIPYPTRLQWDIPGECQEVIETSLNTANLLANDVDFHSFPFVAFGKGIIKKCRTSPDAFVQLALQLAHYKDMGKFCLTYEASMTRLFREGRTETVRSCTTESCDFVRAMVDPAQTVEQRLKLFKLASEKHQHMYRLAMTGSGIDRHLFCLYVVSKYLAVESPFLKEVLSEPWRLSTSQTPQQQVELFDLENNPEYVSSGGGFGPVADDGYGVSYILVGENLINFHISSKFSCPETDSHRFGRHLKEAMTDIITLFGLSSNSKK
Format: biochemical
Procedure, shortened: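 Mitochondrial extracts (1.6 μg protein) expressing human CPT1A, preincubated 10 min with compound in 20% DMSO, then reacted 10 min at room temperature with 20 μM palmitoyl-CoA, 50 μM L-carnitine (pH 7.5). Palmitoyl carnitine was quantified by LC/MS against a myristoyl carnitine standard; 16-point, 2-fold titrations gave dose response.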
For `CCCCCCCCc1ccc(NC(=O)N[C@H](CC(=O)[O-])C[N+](C)(C)C)cc1` [Example S7, (R)-3-(3-(4-octylphenyl)ureido)-4-(trimethylammonio)butanoate], the IC50 was 1 to 10 µM.
With `CCCCCCCOc1ccc(NC(=O)N[C@H](CC(=O)[O-])C[N+](C)(C)C)cc1` [Example S10, (R)-3-(3-(4-(heptyloxy)phenyl)ureido)-4-(trimethylammonio)butanoate] the IC50 was 10 to 100 µM.
In the case of `CCCCCCCCCCOc1ccc(C(=O)N[C@H](CC(=O)O)C[N+](C)(C)C)cc1` [Example S63, (R)-3-(4-(decyloxy)benzamido)-4-(trimethylammonio)butanoate 2,2,2-trifluoroacetate], the IC50 is reported as at most 1 µM.
`CCCCCCCCCCc1ccc(C(=O)N[C@H](CC(=O)[O-])C[N+](C)(C)C)cc1` [Example S66, (R)-3-(4-decylbenzamido)-4-(trimethylammonio)butanoate] showed an IC50 of at most 1 µM.
For `CCCCCCCCCCOc1cccc(C(=O)N[C@H](CC(=O)[O-])C[N+](C)(C)C)c1` [Example S67, (R)-3-(3-(decyloxy)benzamido)-4-(trimethylammonio)butanoate], the IC50 was 10 to 100 µM.
`CCCCCCCCCCc1ccc(S(=O)(=O)N[C@H](CC(=O)O)C[N+](C)(C)C)cc1` [Example S75, (R)-3-carboxy-2-(4-decylphenylsulfonamido)-N,N,N-trimethylpropan-1-aminium 2,2,2-trifluoroacetate] showed an IC50 of 1 to 10 µM.
`CCCCCCCCCCCCc1ccc(NS(=O)(=O)N[C@H](CC(=O)O)C[N+](C)(C)C)cc1` [Example S89, (R)-3-(N-(4-dodecylphenyl)sulfamoylamino)-4-(trimethylammonio)-butanoate] gave an IC50 of at most 1 µM.
`CCCCCCCCCCCCCCc1ccc(NS(=O)(=O)N[C@H](CC(=O)O)C[N+](C)(C)C)cc1` [Example S90, (R)-3-(N-(4-tetradecylphenyl)sulfamoylamino)-4-(trimethylammonio)-butanoate] gave an IC50 of at most 1 µM.
